From patent publication US4405717A, “Recovery of acetic acid from a fermentation broth” (priority 1981, dated 1983)
Where two headings read alike, the source gives them in different places.

Legend:
[1] = for dissolution of the amine: aqueous calcium acetate solution, carbon dioxide added
Description: In carrying out the process of this invention, a molar equivalent of a water-soluble tertiary amine carbonate is added to the calcium acetate solution. The tertiary amine carbonate used in the process can be generated by the addition of carbon dioxide to a solution or suspension of the tertiary amine in water. It is most convenient to generate the tertiary amine carbonate in situ by first adding a molar equivalent of the tertiary amine to the calcium acetate solution. Then carbon dioxide is added to the mixture to generate the tertiary amine carbonate directly in the calcium acetate solution. The addition of the carbon dioxide is carried out by any convenient means. Either solid or gaseous carbon dioxide is added to the solution at atmospheric pressure or at higher pressures in a pressure vessel.
To a solution of 20 g of acetic acid and 400 ml of water was added 16 g of calcium carbonate. […] To this was added 62 g of tributylamine.

[2] = Thermal decomposition (dissociation) of trialkylammonium acetates; assay type: physicochemical
Description: In the final step of the process, the trialkylammonium acetate is heated to cause dissociation of the acetate with liberation of acetic acid and the amine. The temperature at which the acetate decomposes depends somewhat on the tertiary amine used. When tributylamine is employed, the acetate decomposes when held in a bath in the range of about 170°-190° C. with distillation of the acetic acid in a relatively pure form. The residue after distillation of the acid is tributylamine which can be recycled for use in the extraction process.
The syrup obtained in Example 1 was placed in a flask fitted with a 7-cm Vigreux column attached to a water-cooled condenser. The flask was heated in an oil bath to 180° C. at which temperature decomposition of the acetate occurred. The yield of acetic acid distilling at 115°-118° C. was 18.3 g which represents a 91.5% recovery of the acetic acid present in the solution.
When the process of Example 2 was repeated with the syrups containing trimethylammonium acetate, triethylammonium acetate and tripropylammonium acetate, the products that were obtained were either azeotropes or mixtures of the tertiary amine and acetic acid.

[3] = Extraction of trialkylammonium acetates: distribution coefficient (KD) between water and solvents; assay type: physicochemical; conditions: conclusion from Table I
Description: In one embodiment of this invention, the trialkylammonium acetate is extracted from the solution by means of an organic solvent. Polar solvents, such as esters, alcohols, ketones, ethers or chlorinated hydrocarbons can be used. The solvents should be insoluble or sparingly soluble in water and be good extractants for the acetate. This extraction ability is determined by measuring the amount of acetic acid in each phase when an acetate solution is extracted with an equal volume of extractant. The extraction ability is expressed as a Distribution Coefficient (KD) which is defined by the formula: [formula] The solvent should have a KD greater than about 0.4 and preferably greater than about 1.
The efficiency with which trialkylammonium acetates could be extracted from water solutions with various solvents was measured by determination of the KD of the salts between water and the solvents according to the following procedure:
A mixture of 50 ml of a 5% aqueous solution of the acetate formed by the procedure of Example 1 and 50 ml of solvent in a 250-ml Erlenmeyer flask was shaken in a wrist-action shaker for 2 hours at room temperature. The mixture was transferred to a separatory funnel where it was allowed to stand for an additional hour before the phases were separated, weighed and analyzed. […]

CCCCCN(CCCCC)CCCCC [triamylamine]
dissolution of the amine [1]: the amine did not dissolve

CN(C1CCCCC1)C1CCCCC1 [dicyclohexylmethylamine]
dissolution of the amine [1]: all of the amine went into solution

CCCCCCCCCCCCN(C)C [dimethyldodecylamine, N,N-dimethyldodecylamine]
behaviour of the salt on distillation ([2]; salts prepared from long-chain amines): distillation was accompanied by unknown side-reactions

CN(C)c1ccncc1 [4-dimethylaminopyridine]
dissolution of the amine [1]: all of the amine went into solution

CCCCN(CCCC)CCCC [tributylamine]
dissolution of the amine ([1]; listed as Tributylamine): dissolves readily

CCCCCCCCN(CCCCCCCC)CCCCCCCC [trioctylamine]
water solubility of the amine carbonate [1]: do not form carbonates which are sufficiently soluble in water

CN(C)C [trimethylamine]
water solubility of the amine carbonate ([1]; general statement): form carbonates which are water soluble

CC(=O)O.CCCCN(CCCC)CCCC [Tributylammonium Acetate, tributylammonium acetate]
extraction from water with the solvents (in words) [3]: much more efficient than any of the other combinations | decomposition temperature of the acetate ([2]; heated in an oil bath, Example 2): 180 °C

CCCCCCN(CCCCCC)CCCCCC [trihexylamine]
water solubility of the amine carbonate [1]: do not form carbonates which are sufficiently soluble in water | dissolution of the amine [1]: the amine did not dissolve

CCCN(CCC)CCC [tripropylamine]
water solubility of the amine carbonate [1]: form carbonates which are water soluble | dissolution of the amine [1]: all of the amine went into solution

CC(C)CCCCCN(CCCCCC(C)C)CCCCCC(C)C [triisooctylamine]
dissolution of the amine [1]: the amine did not dissolve
